Legend:
[1] = Biodistribution study in LNCaP tumor-bearing mice (Th227 counted in organs); format: in vivo, SCID mice; conditions: 500 kBq/kg; for Th-227 in Blood / Th-227 in Femur bone / Th-227 in Kidneys / Th-227 in Liver / Th-227 in Spleen / Th-227 in Tumor / Th-227 in salivary glands: study b3004
Summary of the method: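 SCID mice bearing testosterone pellets and subcutaneous LNCaP flank tumors (~50 mm^2) received a single intravenous dose of the radioactive compound. At set time points, n=3 animals were sacrificed, and organs were removed, weighed and counted for Th227 on a Germanium detector.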

[2] = test system: LNCaP human prostate cancer cells; test: LNCaP xenograft efficacy study (T/C tumor area); format: in vivo, SCID mice; conditions: Example II; 750 kBq/kg weekly for 5 weeks; day 120
Summary of the method: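 SCID mice with testosterone pellet bearing s.c. flank LNCaP xenografts (5×10^6 cells in Matrigel) were treated i.v. with a defined radioactive dose once tumors reached 35-50 mm^2 (n=10/group). Tumor area (caliper, longest diameter × perpendicular) measured 2-3× weekly; T/C ratio calculated from tumor areas when vehicle group closed.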

[3] = molecular target: T1, PSMA-expressing LNCaP cells (Homo sapiens, UniProt Q04609); test: Internalization assay (membrane bound and internalized Th-227); format: cell-based; conditions: for Internalized in LNCaP fmol/10^6 cells 30 min / Membrane bound in LNCaP fmol/10^6 cells 30 min / Internalized in LNCaP fmol/10^6 cells 2 h / Membrane bound in LNCaP fmol/10^6 cells 2 h: 10 nM radiolabeled compound, Th-227 at 375 kBq/nmol, triplicates; for Internalized in LNCaP fmol/10^6 cells 30 min / Membrane bound in LNCaP fmol/10^6 cells 30 min: 30 min incubation; for Internalized in LNCaP fmol/10^6 cells 2 h / Membrane bound in LNCaP fmol/10^6 cells 2 h: 2 h incubation
T1 construct: PSMA-expressing LNCaP cells; endogenous in cells; host or cells: LNCaP
T1 sequence (Q04609 whole entry): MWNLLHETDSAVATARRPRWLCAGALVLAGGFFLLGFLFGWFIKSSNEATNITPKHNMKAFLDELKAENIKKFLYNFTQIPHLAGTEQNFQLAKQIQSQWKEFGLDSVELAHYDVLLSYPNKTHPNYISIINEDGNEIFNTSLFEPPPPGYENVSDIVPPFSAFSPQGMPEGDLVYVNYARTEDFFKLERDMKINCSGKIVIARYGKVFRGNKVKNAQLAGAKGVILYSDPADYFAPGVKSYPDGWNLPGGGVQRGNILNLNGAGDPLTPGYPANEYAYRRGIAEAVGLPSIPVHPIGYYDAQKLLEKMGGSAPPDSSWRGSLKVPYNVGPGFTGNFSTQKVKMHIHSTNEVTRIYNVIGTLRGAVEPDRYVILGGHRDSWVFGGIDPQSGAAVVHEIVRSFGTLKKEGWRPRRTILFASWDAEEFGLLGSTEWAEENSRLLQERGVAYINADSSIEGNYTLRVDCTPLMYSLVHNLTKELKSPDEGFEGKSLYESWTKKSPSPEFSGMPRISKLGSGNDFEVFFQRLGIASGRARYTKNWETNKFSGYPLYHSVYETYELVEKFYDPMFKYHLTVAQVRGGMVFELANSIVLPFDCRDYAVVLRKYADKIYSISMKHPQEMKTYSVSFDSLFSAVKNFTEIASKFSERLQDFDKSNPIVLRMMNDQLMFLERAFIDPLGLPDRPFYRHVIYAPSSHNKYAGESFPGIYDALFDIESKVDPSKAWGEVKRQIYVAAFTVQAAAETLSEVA
Experimental: For internalization assays 24 well plates (#3526, Corning) were coated with 200 μl Poly-L-Lysine (0.1 mg/ml, #3438-100-01, Fa. Cultrex) per well for 2 h at 37° C. […] Cells were incubated at 37° C. and 5% CO2 over night. On the following day 400 μl of the media were removed and a total of 200 μl growth medium added supplemented with PSMA-SMOLs labeled with Th-227 at 375 kBq/nmol in triplicates. Radiochemical purity of the labeling was analyzed by instant thin layer chromatography and found to be above 70% for all compounds used. The final concentration of radiolabeled SMOLs was in the test wells was 10 nM. Cells were incubated for 30 min or 2 h. After the incubation time supernatants were taken off and cells washed with PBS. Thereafter cells were washed twice with 0.2 ml 50 mM Glycine-HCl buffer (#55097, Sigma Aldrich) and once with PBS and the washing solutions combined in counting vials (#TK75-018, Fa. Corning) and subjected to gamma counting (1470 Wizard automatic gamma counter, Wallac). The resulting counts were attributed to membrane bound radioactivity. Cells were then lysed with 500 μl 0.3N NaOH (#181691.1211, Fa. PanReac AppliChem ITW Reagents) followed by another wash with 500 μl PBS. The NaOH lysate as well as the final wash were combined in vials and subjected to gamma counting as described above. Measured radioactivity was attributed to internalized fraction. Results were calculated as fmol of Th-227 per/10^cells in the membrane bound and internalized fractions from triplicate values.

LNCaP cells = test: Cell proliferation assay (CellTiter-Glo, 5-day exposure), LNCaP; format: cell-based, human
Experimental: Inhibition of cell proliferation of Thorium-227 labeled PMSA SMOL ligands was tested different prostate cancer cell lines, namely 22Rv1, VCaP, C4-2 (all from ATCC, Manassas, Va., USA) and LNCaP (DMSZ, Braunschweig). Cells were seeded using the following conditions in 384 well plates (Corning) in 30 μl of growth media at 4000 cells/well for VCaP cells and 1000 cells/well for 22Rv1, C4-2 and LNCaP cells.
Cells were cultivated an incubator at 37° C. and 5% C02 over night. On the following days cells were treated in triplicates with serial dilutions of PSMA-SMOLs labeled with Th-227 at a specific activity of 375 kBq/nmol (RCP>70% as assessed by iTLC analysis; compounds where RCP was between 50-70% in individual experiments are marked with an * in the table) using a D300e Digital Dispenser (Tecan). In sister plates cell viability at treatment start (d=0) was determined using CellTiter-Glo® assay (CTG, Promega, Madison, Wis., USA), by adding 30 μl per well CTG solution, incubation for 10 min and reading of Luminescence in a PheraStarFSX instrument (BMG Labtech). After a 5-day exposure in the presenced of test compounds, cell viability of treated or untreated control cells was determined again using CellTiter-Glo® assay (Promega, Madison, Wis., USA). […] The DRC software is a Biobook Spreadsheet that was developed by Bayer AG and Bayer Business Services on the IDBS E-Workbook Suite platform (IDBS: ID Business Solutions Ltd., Guildford, UK).

VCaP cells = test: Cell proliferation assay (CellTiter-Glo, 5-day exposure), VCaP; format: cell-based; conditions: 4000 cells/well, Th-227 labelled at 375 kBq/nmol, mean of 1 to 6 experiments
Summary of the method: (§1)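 Thorium-227-labelled PSMA small-molecule ligands were tested on prostate cancer lines seeded at 4000 cells/well (VCaP) or 1000 cells/well (22Rv1, C4-2, LNCaP) and incubated overnight at 37 °C, 5% CO2. Viability was read by CellTiter-Glo luminescence at treatment start (sister plates) and after 5-day compound exposure.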

C4-2 cells = test: Cell proliferation assay (CellTiter-Glo, 5-day exposure), C4-2; format: cell-based; conditions: C4-2, 1000 cells/well, Th-227 labelled at 375 kBq/nmol, mean of 1 to 6 experiments
Summary of the method: as §1

22Rv1 cells = test: Cell proliferation assay (CellTiter-Glo, 5-day exposure), 22Rv1; format: cell-based; conditions: 22Rv1, 1000 cells/well, Th-227 labelled at 375 kBq/nmol, mean of 1 to 6 experiments
Summary of the method: as §1

[4] = comparison of % injected dose per gram tissue

With `CC1=CC2=C3[O][227Th-5]45678([O]C9=C(C=C(C)N(CC(=O)O)C9=[O+]4)C(=O)NCCN(CCCN(CCNC(=O)C4=C([O]5)C(=[O+]6)N(CC(=O)O)C(C)=C4)CCNC(=O)C4=C([OH+]7)C(=[O+]8)N(CC(=O)NC[C@H]5CC[C@H](C(=O)N[C@@H](Cc6ccc7ccccc7c6)C(=O)NCCCC[C@H](NC(=O)N[C@@H](CCC(=O)O)C(=O)O)C(=O)O)CC5)C(C)=C4)CCNC2=O)[O+]=C3N1CC(=O)O` [1-C monomer-227Th] the “Accumulation in the tumor (in words)” value [1, 4] was “much higher accumulation in the tumor”, the “Background in blood, liver and spleen (in words)” value [1, 4] was “lower background compared to 1-F-227Th” and the “Th-227 in Blood” value ([1]; 1 h) was 0.63 % ID Th-227/g organ. For the same molecule, the “Th-227 in Femur bone” value ([1]; 1 h) was 0.96 % ID Th-227/g organ, the “Th-227 in Kidneys” value ([1]; 1 h) was 119.59 % ID Th-227/g organ and the “Th-227 in Liver” value ([1]; 1 h) was 0.69 % ID Th-227/g organ. The “Th-227 in Spleen” value ([1]; 1 h) was 4.69 % ID Th-227/g organ, the “Th-227 in Tumor” value ([1]; 1 h) was 31.73 % ID Th-227/g organ and the “Th-227 in salivary glands” value ([1]; 1 h) was 9.62 % ID Th-227/g organ. The “Th-227 in Blood” value ([1]; 24 h) was 0.03 % ID Th-227/g organ, the “Th-227 in Femur bone” value ([1]; 24 h) was 1.08 % ID Th-227/g organ and the “Th-227 in Kidneys” value ([1]; 24 h) was 72.59 % ID Th-227/g organ. The “Th-227 in Liver” value ([1]; 24 h) was 0.35 % ID Th-227/g organ, the “Th-227 in Spleen” value ([1]; 24 h) was 1.79 % ID Th-227/g organ and the “Th-227 in Tumor” value ([1]; 24 h) was 16.36 % ID Th-227/g organ. The “Th-227 in salivary glands” value ([1]; 24 h) was 1.41 % ID Th-227/g organ, the “Th-227 in Blood” value ([1]; 72 h) was 0.01 % ID Th-227/g organ and the “Th-227 in Femur bone” value ([1]; 72 h) was 1.12 % ID Th-227/g organ. The “Th-227 in Kidneys” value ([1]; 72 h) was 24.80 % ID Th-227/g organ, the “Th-227 in Liver” value ([1]; 72 h) was 0.36 % ID Th-227/g organ and the “Th-227 in Spleen” value ([1]; 72 h) was 0.76 % ID Th-227/g organ. For the same molecule, the “Th-227 in Tumor” value ([1]; 72 h) was 9.02 % ID Th-227/g organ, the “Th-227 in salivary glands” value ([1]; 72 h) was 1.13 % ID Th-227/g organ and the “Th-227 in Blood” value ([1]; 168 h) was 0.00 % ID Th-227/g organ. For the same molecule, the “Th-227 in Femur bone” value ([1]; 168 h) was 1.28 % ID Th-227/g organ, the “Th-227 in Kidneys” value ([1]; 168 h) was 12.66. % ID Th-227/g organ and the “Th-227 in Liver” value ([1]; 168 h) was 0.33 % ID Th-227/g organ. The “Th-227 in Spleen” value ([1]; 168 h) was 0.78 % ID Th-227/g organ, the “Th-227 in Tumor” value ([1]; 168 h) was 6.20 % ID Th-227/g organ and the “Th-227 in salivary glands” value ([1]; 168 h) was 1.23 % ID Th-227/g organ. For the same molecule, the “Th-227 in Blood” value ([1]; 336 h) was 0.00 % ID Th-227/g organ, the “Th-227 in Femur bone” value ([1]; 336 h) was 1.13 % ID Th-227/g organ and the “Th-227 in Kidneys” value ([1]; 336 h) was 3.41 % ID Th-227/g organ. The “Th-227 in Liver” value ([1]; 336 h) was 0.31 % ID Th-227/g organ, the “Th-227 in Spleen” value ([1]; 336 h) was 0.70 % ID Th-227/g organ and the “Th-227 in Tumor” value ([1]; 336 h) was 2.78 % ID Th-227/g organ. For the same molecule, the “Th-227 in salivary glands” value ([1]; 336 h) was 1.29 % ID Th-227/g organ, the Tumor response [2] was “full response” and the “Internalized in LNCaP fmol/10^6 cells 30 min” value [3] was 84 fmol/10^6 cells. The “Membrane bound in LNCaP fmol/10^6 cells 30 min” value [3] was 105 fmol/10^6 cells, the “Internalized in LNCaP fmol/10^6 cells 2 h” value [3] was 291 fmol/10^6 cells and the “Membrane bound in LNCaP fmol/10^6 cells 2 h” value [3] was 260 fmol/10^6 cells. For the same molecule, the “intracellular radioactivity on PSMA-expressing LNCaP cells (in words)” value ([3]; after 30 min and 2 h, compared to 1-B-227Th bearing a DOTA chelator) was “increased intracellular radioactivity” and the “antiproliferative activity on LnCap cells (in words)” value (LNCaP cells; compared to 1-PEG-227Th and 46-E 227Th) was “superior antiproliferative activity”.
For `Cc1cc(C(=O)NCCN(CCCN(CCNC(=O)c2cc(C)n(CC(=O)NCc3ccc(C(=O)N[C@@H](Cc4ccc5ccccc5n4)C(=O)NCCCC[C@H](NC(=O)N[C@@H](CCC(=O)O)C(=O)O)C(=O)O)nc3)c(=O)c2[O-])CCNC(=O)c2cc(C)n(CC(=O)NCc3ccc(C(=O)N[C@@H](Cc4ccc5ccccc5n4)C(=O)NCCCC[C@H](NC(=O)N[C@@H](CCC(=O)O)C(=O)O)C(=O)O)nc3)c(=O)c2[O-])CCNC(=O)c2cc(C)n(CC(=O)NCc3ccc(C(=O)N[C@@H](Cc4ccc5ccccc5n4)C(=O)NCCCC[C@H](NC(=O)N[C@@H](CCC(=O)O)C(=O)O)C(=O)O)nc3)c(=O)c2[O-])c([O-])c(=O)n1CC(=O)NCc1ccc(C(=O)N[C@@H](Cc2ccc3ccccc3n2)C(=O)NCCCC[C@H](NC(=O)N[C@@H](CCC(=O)O)C(=O)O)C(=O)O)nc1.[227Th+4]` [34-C tetramer-227Th], the “Proliferation assay on cancer cell lines by TTCs Default Pivot #3 IC50 [kBq/mL] VCap 4000cells 375kBq/nmol (mean)” value (VCaP cells) was 1.96 kBq/mL, the “Proliferation assay on cancer cell lines by TTCs Default Pivot #3 IC50 [kBq/mL] C4-2 1000cells 375kBq/nmol (mean)” value (C4-2 cells) was 1.55 kBq/mL and the “Internalized in LNCaP fmol/10^6 cells 30 min” value [3] was 117 fmol/10^6 cells. For the same molecule, the “Membrane bound in LNCaP fmol/10^6 cells 30 min” value [3] was 82 fmol/10^6 cells, the “Internalized in LNCaP fmol/10^6 cells 2 h” value [3] was 315 fmol/10^6 cells and the “Membrane bound in LNCaP fmol/10^6 cells 2 h” value [3] was 183 fmol/10^6 cells. The “Proliferation assay on cancer cell lines by TTCs Default Pivot #3 IC50 [kBq/mL] 22Rv1 1000cells 375kBq/nmol (mean)” value (22Rv1 cells) was 1.34 kBq/mL and the “Proliferation assay on cancer cell lines by TTCs Default Pivot #3 IC50 [kBq/mL] LnCap 1000cells 375kBq/nmol (mean)” value (LNCaP cells; LNCaP, 1000 cells/well, Th-227 labelled at 375 kBq/nmol, 5-day exposure, mean of 1 to 6 experiments) was 0.03 kBq/mL.
